# Laboratory results as given in article PMC5507466, “The ubiquitin-conjugating enzyme CDC34 is essential for cytokinesis in contrast to putative subunits of a SCF complex in Trypanosoma brucei” (PLoS Neglected Tropical Diseases, 2017).
# Biological target: T1, TbCDC34 (Trypanosoma brucei, UniProt Q382B7)
# T1 construct: gene Tb11.01.5790; N-terminal 6His-tagged, expressed in E. coli BL21(DE3)+pLysE, Ni-NTA purified; catalytic Cys84, Ser86
# T1 sequence (Q382B7 1-247): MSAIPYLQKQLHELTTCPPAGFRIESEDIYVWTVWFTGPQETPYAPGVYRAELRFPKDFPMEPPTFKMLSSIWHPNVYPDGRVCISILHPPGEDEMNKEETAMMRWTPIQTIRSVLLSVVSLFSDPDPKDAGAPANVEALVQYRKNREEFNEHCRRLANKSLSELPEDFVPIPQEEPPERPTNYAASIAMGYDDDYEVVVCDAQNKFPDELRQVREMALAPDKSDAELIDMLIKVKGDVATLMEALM
# Assay: in vitro gel-based ubiquitination assay (anti-ubiquitin and anti-His western blot)
# Format: biochemical
# Details: 300 μM CC0651 vs DMSO; 10 μM E2, 100 nM human E1, 5 μM human ubiquitin; ATP; 37 °C, 0-4 h
structure (smiles),measurement,value
COCC(=O)N[C@@H](Cc1ccc(-c2cc(Cl)cc(Cl)c2)cc1)[C@H](O)[C@@H](O)C(=O)O [CC0651],in vitro gel-based ubiquitination assay (anti-ubiquitin and anti-His western blo),"addition of CC0651 to the reaction had modest, but detectable effect on TbCDC34 activity"
